Experimental findings from US8722868B2, “Glycosyltransferase, novel glycosyltransferase gene, and novel sugar donor compound” (National University Corporation Tokyo University of …, priority 2009, dated 2014) are described below.

Molecules are shown by their SMILES.

The assay deals with T1, delphinium-derived glycosyltransferase (SEQ ID NO: 3), recombinant (Delphinium grandiflorum, UniProt E3W9M3).
T1 construct: made in house; host or cells: Escherichia coli JM109 (crude lysate supernatant)
T1 sequence (E3W9M3 29-505 limits assumed): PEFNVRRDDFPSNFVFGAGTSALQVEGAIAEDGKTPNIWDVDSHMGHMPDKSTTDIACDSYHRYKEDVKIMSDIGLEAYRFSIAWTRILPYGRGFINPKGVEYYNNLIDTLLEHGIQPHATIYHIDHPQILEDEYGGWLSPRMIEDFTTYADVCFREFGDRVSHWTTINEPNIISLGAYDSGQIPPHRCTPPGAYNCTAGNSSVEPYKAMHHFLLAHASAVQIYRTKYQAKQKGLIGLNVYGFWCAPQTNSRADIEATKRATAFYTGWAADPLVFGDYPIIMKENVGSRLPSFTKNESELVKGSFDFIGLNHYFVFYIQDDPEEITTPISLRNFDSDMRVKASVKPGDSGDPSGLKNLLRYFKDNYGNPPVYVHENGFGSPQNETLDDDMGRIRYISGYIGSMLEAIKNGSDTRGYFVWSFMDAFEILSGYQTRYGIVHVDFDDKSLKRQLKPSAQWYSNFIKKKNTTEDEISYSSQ
The assay is described as follows: Glycosyl transfer reaction with delphinium-derived glycosyltransferase gene expressed in Escherichia coli. The class given is biochemical, delphinium (Delphinium grandiflorum L.). The settings on record: recombinant enzyme from E. coli, cyanidin 3-O-β-glucoside as sugar receptor. The protocol:
PCR was performed using a sense primer (“ATGCCCGAATTTAATGTCAG” (SEQ ID NO: 19)) designed so as to add a methionine residue for the initiation of translation to a sequence from which 28 amino acid residues at the N-terminus predicted as corresponding to vacuolar transfer signals of DgVA7GT had been removed and an antisense primer (“CTG TGA AGA GTA CGA TAT C” (SEQ ID NO: 20)) designed so as to lack a stop codon. The PCR product was ligated to a pTrcHis2-TOPO vector (Invitrogen) using a pTrcHis2-TOPO TA expression Kit (Invitrogen), followed by transformation of the Escherichia coli JM109 strain. DNA was extracted from the transformed Escherichia coli and the DNA nucleotide sequence was analyzed in the above manner. Accordingly, the direction of cDNA introduction and the nonoccurrence of a PCR-induced nucleotide substitution were confirmed.
The transformed Escherichia coli was seeded on an LB medium containing […] ampicillin (5 ml), followed by shake culture at 30° C. for 4 hours. Then, IPTG was added thereto to result in 1 mM, followed by shake culture at 16° C. for 2 hours. The cultured Escherichia coli was harvested via centrifugation at 1,800×g. The medium was removed therefrom. A 0.1 M citric acid buffer (pH 5.6) (150 μl) was added thereto, followed by sufficient mixing. […]

As to `O=C(OC1OC(CO)C(O)C(O)C1O)c1ccc(O)cc1` (stereo not drawn) [1-O-β-p-hydroxybenzoyl glucose], the “Sugar donor function with recombinant delphinium-derived glycosyltransferase (reaction product)” value is reported as “cyanidin 3,7-diglucoside formed as a result of transfer of glucose to a hydroxyl group at the 7 position of cyanidin 3-glucoside”.
With `COc1cc(C(=O)OC2OC(CO)C(O)C(O)C2O)ccc1O` (centres unmarked) the entry was “capable of transferring glucose to the 7 position of the anthocyanin skeleton using vanillyl glucose as a sugar donor”.
